BindingDB's records for doi:10.1021/jm201708h (Progen Pharmaceuticals, 2012)
pKi: −log10 of the molar value.

Target: T1, Heparanase (Homo sapiens, UniProt Q9Y251)
T1 sequence (Q9Y251 whole entry): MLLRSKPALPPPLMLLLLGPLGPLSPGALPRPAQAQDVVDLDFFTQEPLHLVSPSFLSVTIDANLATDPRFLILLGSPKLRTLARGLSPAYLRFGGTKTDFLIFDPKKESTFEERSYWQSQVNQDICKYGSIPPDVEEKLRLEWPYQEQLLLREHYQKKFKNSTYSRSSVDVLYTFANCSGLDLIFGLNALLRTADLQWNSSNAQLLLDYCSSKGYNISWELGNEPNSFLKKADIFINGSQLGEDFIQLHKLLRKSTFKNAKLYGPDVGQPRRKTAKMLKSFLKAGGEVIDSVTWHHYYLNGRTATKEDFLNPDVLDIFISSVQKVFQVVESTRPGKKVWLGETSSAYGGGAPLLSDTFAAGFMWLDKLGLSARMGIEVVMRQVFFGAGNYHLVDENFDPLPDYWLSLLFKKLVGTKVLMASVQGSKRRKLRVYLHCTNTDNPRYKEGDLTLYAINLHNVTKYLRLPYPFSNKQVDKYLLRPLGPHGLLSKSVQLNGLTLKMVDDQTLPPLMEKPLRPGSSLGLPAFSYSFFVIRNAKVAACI
Experiment: Inhibition of human recombinant heparanase after 2 to 24 hrs by WST1 dye based fondaparinux assay

pKi: 8.10
SMILES: O=P(O)(O)OC[C@H]1O[C@H](O[C@@H]2[C@H](OS(=O)(=O)O)[C@@H](O[C@@H]3[C@H](OS(=O)(=O)O)[C@@H](O[C@@H]4[C@H](OS(=O)(=O)O)[C@@H](O[C@@H]5[C@@H](OS(=O)(=O)O)O[C@H](COS(=O)(=O)O)[C@@H](OS(=O)(=O)O)[C@@H]5OS(=O)(=O)O)O[C@H](COS(=O)(=O)O)[C@H]4OS(=O)(=O)O)O[C@H](COS(=O)(=O)O)[C@H]3OS(=O)(=O)O)O[C@H](COS(=O)(=O)O)[C@H]2OS(=O)(=O)O)[C@@H](OS(=O)(=O)O)[C@@H](OS(=O)(=O)O)[C@@H]1OS(=O)(=O)O [PI-88]
